Data reported in paper PMC1971568 (British Journal of Cancer, 1990).
Where two headings read alike, the source gives them in different places.

Assays:
[1] = in vivo, ip
LS174T colonic cell line = tested on: LS174T colonic cell line; design: method as in Springer et al., 1990; details: ref Springer et al., 1990; cited from earlier work
[2] = Nu/Nu, mouse, in vivo, iv
[3] = tested on: carboxypeptidase G2 (CPG2); design: method as in Bagshawe et al., 1988; details: ref Bagshawe et al., 1988; cited from earlier work
CC3 tumours = tested on: CC3 tumours; design: method as in Bagshawe et al., 1988; details: single course of two phase prodrug therapy (antibody-enzyme conjugate then prodrug); ref Bagshawe et al., 1988; cited from earlier work
[4] = tested on: human JAR choriocarcinoma cell line; details: cited from earlier work
[5] = Localisation of antibody-enzyme conjugate: enzyme activity in tissues, CC3 model; details: tissue homogenate incubated at 37C with prodrug 34 µg ml-1 (87 µM)

Compound: O=C(O)CC[C@H](NC(=O)c1ccc(N(CCCl)CCCl)cc1)C(=O)O [prodrug, 4-(bis (2-chloroethyl)amino) benzoyl-L-glutamic acid]
- AUC, area under plasma concentration versus time curve from zero to infinity ([1]; Nu/Nu, mouse): 7.09
- Cl, total body clearance ([1]; Nu/Nu, mouse, 41 umol/kg): 1.18
- Vd, apparent volume of distribution ([1]; Nu/Nu, mouse, 41 umol/kg): 0.07 L
- AUC in liver ([1]; 41 umol/kg): 62
- AUC in tumour ([1]; 41 umol/kg): 3.3
- Cytotoxicity against LS174T cells in culture (LS174T colonic cell line): very little cytotox- icity
- AUC, area under plasma concentration versus time curve from zero to infinity [2]: 15.4
- Affinity of the enzyme for prodrug [3]: very high affinity
- Growth of CC3 tumours (CC3 tumours): marked inhibition of growth
- Cytotoxicity against JAR cells in culture [4]: very little cytotox- icity
- Activation of prodrug by tissues of mice which did not receive conjugate [5]: No activation
